Tests used:
human FPR2 = human FPR2 (Homo sapiens (Human), UniProt P25090); experiment: FPR2 cyclic adenosine monophosphate (cAMP) assay; format: cell-based; conditions: CHO cells overexpressing human FPR2; forskolin 5 μM, IBMX 200 μM; inhibition of cAMP production, HTRF; read-out: hFPR2 cAMP2 EC50
Description: (§1) N-formyl peptide receptors (FPRs) are a family of chemo attractant receptors that facilitate leukocyte response during inflammation. FPRs belong to the seven-transmembrane G protein-coupled receptor superfamily and are linked to inhibitory G-proteins (Gi). Three family members (FPR1, FPR2 and FPR3) have been identified in humans and are predominantly found in myeloid cells with varied distribution and have also been reported in multiple organs and tissues. After agonist binding, the FPRs activate a multitude of physiological pathways, such as intra cellular signaling transduction, Ca^21 mobilization and transcription. The family interacts with a diverse set of ligands that includes proteins, polypeptides and fatty acid metabolites which activate both pro-inflammatory and pro-resolution downstream responses. FPR2 and FPR1 Cyclic Adenosine Monophosphate (cAMP) Assays were used to measure the activity of the compounds in this patent.
(§2) FPR2 and FPR1 Cyclic Adenosine Monophosphate (cAMP) Assays. A mixture of forskolin (5 μM final for FPR2 or 10 μM final for FPR1) and IBMX (200 μM final) were added to 384-well Proxiplates (Perkin-Elmer) pre-dotted with test compounds in DMSO (1% final) at final concentrations in the range of 0.020 nM to 100 μM. Chinese Hamster Ovary cells (CHO) overexpressing human FPR1 or human FPR2 receptors were cultured in F-12 (Ham's) medium supplemented with 10% qualified FBS, 250 μg/ml zeocin and 300 μg/ml hygromycin (Life Technologies). Reactions were initiated by adding 2,000 human FPR2 cells per well or 4,000 human FPR1 cells per well in Dulbecco's PBS (with calcium and magnesium) (Life Technologies) supplemented with 0.1% BSA (Perkin-Elmer). The reaction mixtures were incubated for 30 min at room temperature. The level of intracellular cAMP was determined using the HTRF HiRange cAMP assay reagent kit (Cisbio) according to manufacturer's instruction. Solutions of cryptate conjugated anti-cAMP and d2 flurorophore-labelled cAMP were made in a supplied lysis buffer separately. Upon completion of the reaction, the cells were lysed with equal volume of the d2-cAMP solution and anti-cAMP solution. After a 1-h room temperature incubation, time-resolved fluorescence intensity was measured using the Envision (Perkin-Elmer) at 400 nm excitation and dual emission at 590 nm and 665 nm. A calibration curve was constructed with an external cAMP standard at concentrations ranging from 1 μM to 0.1 μM by plotting the fluorescent intensity ratio from 665 nm emission to the intensity from the 590 nm emission against cAMP concentrations. The potency and activity of a compound to inhibit cAMP production was then determined by fitting to a 4-parametric logistic equation from a plot of cAMP level versus compound concentrations.

human FPR1 = human FPR1 (Homo sapiens (Human), UniProt P21462); experiment: FPR1 cyclic adenosine monophosphate (cAMP) assay; format: cell-based; conditions: CHO cells overexpressing human FPR1; forskolin 10 μM, IBMX 200 μM; inhibition of cAMP production, HTRF; read-out: hFPR1 cAMP EC50
Description: as §1, §2

human FPR1, sequence (P21462 whole entry): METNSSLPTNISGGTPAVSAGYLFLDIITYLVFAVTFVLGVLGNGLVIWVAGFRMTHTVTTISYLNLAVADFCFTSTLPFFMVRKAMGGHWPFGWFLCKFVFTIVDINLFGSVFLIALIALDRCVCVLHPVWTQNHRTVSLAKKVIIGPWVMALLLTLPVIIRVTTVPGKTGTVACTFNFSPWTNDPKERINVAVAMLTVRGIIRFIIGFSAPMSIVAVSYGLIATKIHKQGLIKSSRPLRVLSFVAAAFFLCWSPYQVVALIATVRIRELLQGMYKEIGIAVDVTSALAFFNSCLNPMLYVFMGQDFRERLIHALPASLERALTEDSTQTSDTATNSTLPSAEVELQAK
human FPR2, sequence (P25090 whole entry): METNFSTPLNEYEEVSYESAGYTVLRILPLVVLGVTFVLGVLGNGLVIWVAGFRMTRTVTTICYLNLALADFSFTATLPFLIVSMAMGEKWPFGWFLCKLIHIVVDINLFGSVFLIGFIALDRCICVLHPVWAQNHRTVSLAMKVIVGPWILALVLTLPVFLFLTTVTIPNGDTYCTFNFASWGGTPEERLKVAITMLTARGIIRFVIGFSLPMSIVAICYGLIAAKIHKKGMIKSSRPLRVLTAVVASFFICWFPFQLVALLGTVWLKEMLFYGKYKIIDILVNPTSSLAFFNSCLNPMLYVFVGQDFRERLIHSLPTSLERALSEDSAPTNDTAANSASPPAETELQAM

Row | SMILES | EC50 (human FPR2) [nM] | EC50 (human FPR1) [nM]
1 | COCCn1cccc(N2C(=O)[C@@H](NC(=O)N[C@H]3CC[C@H](C(F)F)CC3)[C@H](c3c(F)cc(OC)cc3F)[C@@H]2C)c1=O [Example 105] | 17 | 1200
2 | COc1cc(F)c([C@@H]2CN(c3ncccc3C(F)(F)F)C(=O)[C@H]2NC(=O)NC2CCc3ccccc3C2)c(F)c1 (stereo partly drawn) [Example 24] | 2.8 | 18
3 | COCCn1cccc(N2C[C@@H](c3ccc(OC)cc3)[C@H](NC(=O)NC3CCc4cc(OC)ccc4C3)C2=O)c1=O (stereo partly drawn) [Example 11] | 0.8 | 0.1
4 | COc1cc(F)c([C@H]2[C@H](NC(=O)N[C@H]3CC[C@H](C(F)F)CC3)C(=O)N(c3ncccc3OC(C)C)[C@H]2C)c(F)c1 [Example 51] | 12 | 77
5 | COCCNc1ccnc(N2C[C@@H](c3c(F)cc(OC)cc3F)[C@H](NC(=O)N[C@H]3CC[C@H](C(F)F)CC3)C2=O)c1C(F)(F)F [Example 69] | 5.2 | 1800
6 | COc1cc(F)c([C@H]2[C@H](NC(=O)N[C@H]3CC[C@H](C(F)F)CC3)C(=O)N(c3cccn(CCO)c3=O)[C@H]2C)c(F)c1 [Example 71] | 54 | 1100
7 | COCCn1cccc(N2C[C@@H](c3c(F)cc(OC)cc3F)[C@H](NC(=O)NC3CCc4cc(OC)ccc4C3(C)C)C2=O)c1=O (stereo partly drawn) [Example 54] | 19 | 8.8
8 | COc1cc(F)c([C@@H]2CN(c3ncccc3C(F)(F)F)C(=O)[C@H]2NC(=O)NC2CCc3cc(Cl)ccc3C2)c(F)c1 (stereo partly drawn) [Example 31] | 3.8 | 110
9 | COCCn1ccc(OC)c(N2C[C@@H](c3c(F)cc(OC)cc3F)[C@H](NC(=O)NC3CCc4cc(Cl)ccc4C3)C2=O)c1=O (stereo partly drawn) [Example 38] | 4.5 | 1.3
10 | COCCn1cccc(N2C[C@@H](c3ccc(Cl)cc3)[C@H](NC(=O)NC3CCc4cc(OC)ccc4C3)C2=O)c1=O (stereo partly drawn) [Example 55] | 24 | 0.5
11 | COc1cc(F)c([C@@H]2CN(c3nccc(N4CCN(S(C)(=O)=O)CC4)c3C(F)(F)F)C(=O)[C@H]2NC(=O)N[C@H]2CC[C@H](C(F)F)CC2)c(F)c1 [Example 88] | 9.1 | > 10000
12 | COCCn1cccc(N2C[C@@H](c3c(F)cc(OC)cc3F)[C@H](NC(=O)NC3CCc4cc(Cl)ccc4C3)C2=O)c1=O (stereo partly drawn) [Example 17] | 1.7 | 0.6
13 | COc1cc(F)c([C@@H]2CN(c3ncccc3C(F)(F)F)C(=O)[C@H]2NC(=O)NC2CCc3cc(OC)ccc3C2)c(F)c1 (stereo partly drawn) [Example 46] | 7.1 | 1.5
14 | COCCn1cccc(N2C(=O)[C@@H](NC(=O)NC3CCc4cc(Cl)ccc4C3)[C@H](c3c(F)cc(OC)cc3F)[C@@H]2C)c1=O (stereo partly drawn) [Example 27] | 2.9 | 2.5
15 | COc1cc(F)c([C@@H]2CN(c3cccn(CCO)c3=O)C(=O)[C@H]2NC(=O)NC2CCc3cc(Cl)ccc3C2)c(F)c1 (stereo partly drawn) [Example 19] | 1.9 | 30.1
16 | COCCn1ccc(OC)c(N2C[C@@H](c3c(F)cc(OC)cc3F)[C@H](NC(=O)NC3CCc4cc(OC)ccc4C3)C2=O)c1=O (stereo partly drawn) [Example 50] | 12 | 1.2

Continued, values first:

Row | EC50 (human FPR2) [nM] | EC50 (human FPR1) [nM] | SMILES
17 | 4 | 5.3 | COc1cc(F)c([C@@H]2CN(c3cccn(C(F)F)c3=O)C(=O)[C@H]2NC(=O)NC2CCc3cc(OC)ccc3C2)c(F)c1 (single isomer, unassigned) [Example 95]
18 | 11 | 1 | COc1cc(F)c([C@@H]2CN(c3cccn(CC(O)C(F)(F)F)c3=O)C(=O)[C@H]2NC(=O)NC2CCc3cc(OC)ccc3C2)c(F)c1 (stereo partly drawn) [Example 80]
19 | 4.4 | 7.6 | COCCn1nccc(N2C[C@@H](c3c(F)cc(OC)cc3F)[C@H](NC(=O)NC3CCc4cc(OC)ccc4C3)C2=O)c1=O (stereo partly drawn) [Example 85]
20 | 4.5 | 11 | CCn1cccc(N2C[C@@H](c3c(F)cc(OC)cc3F)[C@H](NC(=O)NC3CCc4cc(OC)ccc4C3)C2=O)c1=O (stereo partly drawn) [Example 37]
21 | 1.4 | 0.3 | CCn1nccc(N2C[C@@H](c3c(F)cc(OC)cc3F)[C@H](NC(=O)NC3CCc4cc(OC)ccc4C3)C2=O)c1=O (single isomer, unassigned) [Example 86]
22 | 4.2 | 0.3 | COCCn1cccc(N2C[C@@H](c3c(F)cc(OC)cc3F)[C@H](NC(=O)NC3CCc4cc(OC)ccc4C3)C2=O)c1=O (stereo partly drawn) [Example 34]
23 | 3.2 | 4.8 | CCn1nccc(N2C[C@@H](c3c(F)cc(OC)cc3F)[C@H](NC(=O)NC3CCc4cc(OC)ccc4C3)C2=O)c1=O (single isomer, unassigned) [Example 87]
24 | 2.6 | 38.9 | COCCn1cccc(N2C[C@@H](c3c(F)cc(OC)cc3F)[C@H](NC(=O)NC3CCc4cc(Cl)ccc4C3)C2=O)c1=O (stereo partly drawn) [Example 20]

From patent US20230303513A1, “OXOPYRROLIDINE UREA FPR2 AGONISTS” (BRISTOL-MYERS SQUIBB COMPANY, priority 2020, published 2023)
